Biological target: T1, full-length ATR (Homo sapiens, UniProt Q13535)
T1 construct: Assays were carried out at 25° C. in the presence of 5 nM full-length ATR
Test: ATR Inhibition Assay (radioactive-phosphate incorporation)
Assay type: biochemical
Conditions: Ki(app); 5 nM full-length ATR, 10 μM ATP, 800 μM target peptide, 25° C.
Method: Compounds were screened for their ability to inhibit ATR kinase using a radioactive-phosphate incorporation assay. Assays were carried out in a mixture of 50 mM Tris/HCl (pH 7.5), 10 mM MgCl2 and 1 mM DTT. Final substrate concentrations were 10 μM [γ-33P]ATP (3mCi 33P ATP/mmol ATP, Perkin Elmer) and 800 μM target peptide (ASELPASQPQPFSAKKK).
Assays were carried out at 25° C. in the presence of 5 nM full-length ATR. An assay stock buffer solution was prepared containing all of the reagents listed above, with the exception of ATP and the test compound of interest. 13.5 μL of the stock solution was placed in a 96 well plate followed by addition of 2 μL of DMSO stock containing serial dilutions of the test compound (typically starting from a final concentration of 15 μM with 3-fold serial dilutions) in duplicate (final DMSO concentration 7%). The plate was pre-incubated for 10 minutes at 25° C. and the reaction initiated by addition of 15 μL [γ-33P]ATP (final concentration 10 μM).
The reaction was stopped after […] by the addition of 30 μL 0.1M phosphoric acid containing 2 mM ATP. A multiscreen phosphocellulose filter 96-well plate (Millipore, Cat no. MAPHN0B50) was pretreated with 100 μL 0.2M phosphoric acid prior to the addition of 45 μL of the stopped assay mixture. The plate was washed with 5×200 μL 0.2M phosphoric acid. After drying, 100 μL Optiphase ‘SuperMix’ liquid scintillation cocktail (Perkin Elmer) was added to the well prior to scintillation counting (1450 Microbeta Liquid Scintillation Counter, Wallac).
After removing mean background values for all of the data points, Ki(app) data were calculated from non-linear regression analysis of the initial rate data using the Prism software package (GraphPad Prism version 3.0cx for Macintosh, GraphPad Software, San Diego Calif., USA).

T1 sequence (Q13535 whole entry): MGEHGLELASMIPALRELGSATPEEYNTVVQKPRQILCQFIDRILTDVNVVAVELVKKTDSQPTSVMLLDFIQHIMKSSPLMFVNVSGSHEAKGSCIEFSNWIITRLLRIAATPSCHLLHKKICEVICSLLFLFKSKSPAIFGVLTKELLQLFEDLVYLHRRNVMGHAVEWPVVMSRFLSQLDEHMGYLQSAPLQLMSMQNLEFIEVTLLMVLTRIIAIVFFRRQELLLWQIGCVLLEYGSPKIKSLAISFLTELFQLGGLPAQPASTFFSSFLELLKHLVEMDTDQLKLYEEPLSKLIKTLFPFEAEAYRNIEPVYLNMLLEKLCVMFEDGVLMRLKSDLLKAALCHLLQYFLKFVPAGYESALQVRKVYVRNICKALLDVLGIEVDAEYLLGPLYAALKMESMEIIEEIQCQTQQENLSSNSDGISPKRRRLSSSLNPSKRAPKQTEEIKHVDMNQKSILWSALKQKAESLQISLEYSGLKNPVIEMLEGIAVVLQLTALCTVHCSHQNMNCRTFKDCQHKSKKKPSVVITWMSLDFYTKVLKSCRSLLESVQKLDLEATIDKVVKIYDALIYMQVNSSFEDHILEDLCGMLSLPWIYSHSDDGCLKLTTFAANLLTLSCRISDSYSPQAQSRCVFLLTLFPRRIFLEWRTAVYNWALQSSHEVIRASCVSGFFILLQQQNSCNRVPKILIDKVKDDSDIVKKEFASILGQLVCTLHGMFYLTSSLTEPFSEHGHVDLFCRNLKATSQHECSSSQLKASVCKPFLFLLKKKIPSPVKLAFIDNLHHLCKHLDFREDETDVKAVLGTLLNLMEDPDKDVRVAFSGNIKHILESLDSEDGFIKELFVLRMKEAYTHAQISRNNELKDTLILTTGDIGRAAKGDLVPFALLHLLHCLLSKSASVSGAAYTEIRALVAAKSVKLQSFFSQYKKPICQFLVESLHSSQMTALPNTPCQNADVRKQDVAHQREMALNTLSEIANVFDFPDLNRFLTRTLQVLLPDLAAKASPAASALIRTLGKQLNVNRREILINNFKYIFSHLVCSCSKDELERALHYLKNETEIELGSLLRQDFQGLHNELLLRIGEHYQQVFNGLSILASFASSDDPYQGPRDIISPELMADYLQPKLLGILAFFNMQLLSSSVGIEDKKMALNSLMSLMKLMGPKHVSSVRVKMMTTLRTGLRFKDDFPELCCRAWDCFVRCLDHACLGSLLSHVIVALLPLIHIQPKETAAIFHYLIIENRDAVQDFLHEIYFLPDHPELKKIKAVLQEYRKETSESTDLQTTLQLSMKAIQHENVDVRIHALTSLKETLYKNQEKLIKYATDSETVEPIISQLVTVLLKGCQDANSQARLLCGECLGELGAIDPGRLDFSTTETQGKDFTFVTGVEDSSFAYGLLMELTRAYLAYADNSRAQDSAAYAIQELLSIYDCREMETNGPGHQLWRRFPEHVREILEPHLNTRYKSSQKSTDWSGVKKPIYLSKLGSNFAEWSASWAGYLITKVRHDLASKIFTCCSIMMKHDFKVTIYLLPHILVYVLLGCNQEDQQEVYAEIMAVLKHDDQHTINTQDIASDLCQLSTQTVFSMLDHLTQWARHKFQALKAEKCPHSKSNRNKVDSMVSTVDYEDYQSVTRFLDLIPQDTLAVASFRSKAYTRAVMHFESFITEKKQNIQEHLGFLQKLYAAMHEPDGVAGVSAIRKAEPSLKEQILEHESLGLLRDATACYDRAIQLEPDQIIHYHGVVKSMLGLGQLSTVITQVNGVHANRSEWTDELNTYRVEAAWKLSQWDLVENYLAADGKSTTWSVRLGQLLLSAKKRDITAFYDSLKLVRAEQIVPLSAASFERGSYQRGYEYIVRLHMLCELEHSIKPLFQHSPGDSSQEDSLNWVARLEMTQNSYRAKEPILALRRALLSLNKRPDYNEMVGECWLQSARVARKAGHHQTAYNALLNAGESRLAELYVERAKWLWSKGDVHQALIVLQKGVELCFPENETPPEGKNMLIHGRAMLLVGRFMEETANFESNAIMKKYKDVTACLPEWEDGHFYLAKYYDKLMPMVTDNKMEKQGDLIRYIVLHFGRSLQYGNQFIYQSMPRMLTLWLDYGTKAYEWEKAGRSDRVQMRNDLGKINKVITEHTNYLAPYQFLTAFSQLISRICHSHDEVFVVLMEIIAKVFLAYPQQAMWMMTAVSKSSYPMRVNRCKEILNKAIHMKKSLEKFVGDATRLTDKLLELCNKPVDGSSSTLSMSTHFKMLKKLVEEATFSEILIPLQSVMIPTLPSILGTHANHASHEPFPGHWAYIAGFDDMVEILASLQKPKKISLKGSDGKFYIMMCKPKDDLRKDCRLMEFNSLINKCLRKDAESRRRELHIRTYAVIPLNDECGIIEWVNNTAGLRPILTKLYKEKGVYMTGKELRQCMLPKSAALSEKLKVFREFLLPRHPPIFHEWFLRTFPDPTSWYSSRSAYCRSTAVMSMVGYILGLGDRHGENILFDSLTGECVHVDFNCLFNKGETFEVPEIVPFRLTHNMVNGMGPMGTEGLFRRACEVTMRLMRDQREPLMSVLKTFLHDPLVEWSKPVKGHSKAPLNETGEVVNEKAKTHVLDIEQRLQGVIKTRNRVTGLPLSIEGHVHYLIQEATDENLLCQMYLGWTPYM

- Ki: ≤ 10 nM
Structure (SMILES): CC(C)S(=O)(=O)c1ccc(-c2cnc3[nH]cc(-c4csc(C(=O)O)c4)c3n2)cc1 [Compound I-64, 4-[2-(4-isopropylsulfonylphenyl)-5H-pyrrolo[2,3-b]pyrazin-7-yl]thiophene-2-carboxylic acid]
